Measured values published in publication doi:10.1101/2025.07.28.666932v2, “Mechanism-Guided Engineering of Fluorinase Unlocks Efficient Nucleophilic Biofluorination” (biorxiv, 2026).

Target: T1, fluorinase FlA1 (Streptomyces sp., UniProt W0W999)
T1 construct: recombinant, overexpressed in Escherichia coli, purified
Assay: global numerical fit of steady-state kinetics and mass photometry
Format: biochemical
Settings: 75 mM KF, 50 mM HEPES, pH 7.8, 37 °C; competitive with fluoride; dissociation of the unproductive E·SAM complex

T1 sequence (W0W999 whole entry): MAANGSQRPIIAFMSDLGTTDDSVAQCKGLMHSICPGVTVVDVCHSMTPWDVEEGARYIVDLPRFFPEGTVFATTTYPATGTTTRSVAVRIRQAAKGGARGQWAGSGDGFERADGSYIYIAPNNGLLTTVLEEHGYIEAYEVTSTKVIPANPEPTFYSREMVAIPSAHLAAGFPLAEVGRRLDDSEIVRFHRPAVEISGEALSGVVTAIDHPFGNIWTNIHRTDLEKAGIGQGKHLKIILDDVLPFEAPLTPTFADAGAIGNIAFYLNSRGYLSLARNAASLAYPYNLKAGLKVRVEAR

SMILES: C[S+](CC[C@H](N)C(=O)O)C[C@H]1O[C@@H](n2cnc3c(N)ncnc32)[C@H](O)[C@@H]1O (stereo partly shown) [SAM]
- Ki,SAM: 1160 ± 80 nM
